Data taken from US20220259593A1, “CONTROL OF MAMMALIAN GENE DOSAGE USING CRISPR” (The Regents of the University of California, priority 2019, published 2022).

Columns and labels:
K562 CRISPRi cells [1] = assay: Perturb-seq pooled growth measurement (sgRNA counts, growth phenotype γ, relative activity); assay type: cell-based, human; conditions: for gamma_day5 / gamma_day10: pooled growth phenotype γ of the Perturb-seq sgRNA; for gamma_day5: day 5, K562 CRISPRi cells; for gamma_day10: day 10, K562 CRISPRi cells; for relative_activity_day5: γ relative to perfectly matched sgRNA (_00) of the same gene, day 5
Method in brief: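 CRISPRi K562 cells from the Perturb-seq transduced pool; 500,000-cell samples taken days two, seven and twelve post-transduction. sgRNA amplicons from genomic DNA sequenced; growth phenotypes from normalized sgRNA abundances at days seven and twelve versus day two. Relative activity assigned from day seven (five days' growth).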

K562 CRISPRi cells [2] = assay: as above; assay type: cell-based, human; conditions: γ relative to perfectly matched sgRNA (_00) of the same gene, day 10

Row | Substance | gamma_day5 (K562 CRISPRi cells [1]) | gamma_day10 (K562 CRISPRi cells [1]) | relative_activity_day5 (K562 CRISPRi cells [1]) | relative_activity_day10 (K562 CRISPRi cells [2])
1 | HSPA5_ + _128003624.23-P1P2_00 (guide GAGCCGAGTAGGCGACGGTG; listed as DNA, chemistry not fully specified) | −0.7476 | −0.4272 | 1 | 1
2 | HSPA5_ + _128003624.23-P1P2_01 (guide GAACCGAGTAGGCGACGGTG; listed as DNA, chemistry not fully specified) | −0.6373 | −0.3748 | 0.8525 | 0.8774
3 | HSPA5_ + _128003624.23-P1P2_04 (guide GAGCCGAGAAGGCGACGGTG; listed as DNA, chemistry not fully specified) | −0.7544 | −0.4225 | 1.009 | 0.989
4 | HSPA5_ + _128003624.23-P1P2_06 (guide GAGCCGAGTAGACGACGGTG; listed as DNA, chemistry not fully specified) | −0.1192 | −0.09835 | 0.1594 | 0.2302
5 | HSPA5_ + _128003624.23-P1P2_08 (guide GAGCCGAGTGGGCGACGGTG; listed as DNA, chemistry not fully specified) | −0.7566 | −0.4435 | 1.012 | 1.038
6 | HSPA9_ −_137911079.23-P1P2_00 (guide GGAGCTGCGCGATGCGGTGG; listed as DNA, chemistry not fully specified) | −0.95 | −0.5892 | 1 | 1
7 | HSPA9_ −_137911079.23-P1P2_02 (guide GGAGTTGCGCGATGCGGTGG; listed as DNA, chemistry not fully specified) | −0.6504 | −0.4027 | 0.6846 | 0.6835
8 | HSPA9_ −_137911079.23-P1P2_04 (guide GGAGCTGCGCAATGCGGTGG; listed as DNA, chemistry not fully specified) | −0.2005 | −0.1657 | 0.211 | 0.2813
9 | HSPA9_ −_137911079.23-P1P2_07 (guide GGAGCTGCGGGATGCGGTGG; listed as DNA, chemistry not fully specified) | −0.8109 | −0.5036 | 0.8537 | 0.8547
10 | HSPA9_ −_137911079.23-P1P2_08 (guide GGAGCTGCTCGATGCGGTGG; listed as DNA, chemistry not fully specified) | −0.3582 | −0.2762 | 0.3771 | 0.4688
11 | HSPE1_ + _198365089.23-P1P2_00 (guide GGAGACTCGCAGTCCGGCCC; listed as DNA, chemistry not fully specified) | −0.7018 | −0.5672 | 1 | 1
12 | HSPE1_ + _198365089.23-P1P2_01 (guide GGAGACACGCAGTCCGGCCC; listed as DNA, chemistry not fully specified) | −0.616 | −0.4834 | 0.8777 | 0.8523
13 | HSPE1_ + _198365089.23-P1P2_02 (guide GGAGACTGGCAGTCCGGCCC; listed as DNA, chemistry not fully specified) | −0.4365 | −0.3565 | 0.622 | 0.6285
14 | HSPE1_ + _198365089.23-P1P2_03 (guide GGTGACTCGCAGTCCGGCCC; listed as DNA, chemistry not fully specified) | −0.6427 | −0.465 | 0.9158 | 0.8198
15 | HSPE1_ + _198365089.23-P1P2_14 (guide GGAGACTCGCAGTCCTGCCC; listed as DNA, chemistry not fully specified) | −0.2088 | −0.1965 | 0.2975 | 0.3465
16 | MTOR_ + _11322547.23-P1P2_00 (guide GGGCAGGGGGCCTGAAGCGG; listed as DNA, chemistry not fully specified) | −0.6872 | −0.5618 | 1 | 1
17 | MTOR_ + _11322547.23-P1P2_05 (guide GGGCAGGGGGCTTGAAGCGG; listed as DNA, chemistry not fully specified) | −0.4313 | −0.3448 | 0.6275 | 0.6137

Row | Substance | gamma_day5 (K562 CRISPRi cells [1]) | gamma_day10 (K562 CRISPRi cells [1]) | relative_activity_day5 (K562 CRISPRi cells [1]) | relative_activity_day10 (K562 CRISPRi cells [2])
18 | MTOR_ + _11322547.23-P1P2_06 (guide GGGCAGGGGGGCTGAAGCGG; listed as DNA, chemistry not fully specified) | −0.3933 | −0.2989 | 0.5723 | 0.532
19 | MTOR_ + _11322547.23-P1P2_07 (guide GGGCAGGGGGTCTGAAGCGG; listed as DNA, chemistry not fully specified) | −0.5893 | −0.4799 | 0.8576 | 0.8541
20 | MTOR_ + _11322547.23-P1P2_10 (guide GGGCAGGGGGCCTGAAGCAG; listed as DNA, chemistry not fully specified) | −0.3048 | −0.2327 | 0.4435 | 0.4141
21 | POLR1D_ + _28196016.23-P1_00 (guide GGGAAGCAAGGACCGACCGA; listed as DNA, chemistry not fully specified) | −0.7594 | −0.6213 | 1 | 1
22 | POLR1D_ + _28196016.23-P1_01 (guide GGGAAGCCAGGACCGACCGA; listed as DNA, chemistry not fully specified) | −0.6945 | −0.5416 | 0.9145 | 0.8718
23 | POLR1D_ + _28196016.23-P1_03 (guide GGTAAGCAAGGACCGACCGA; listed as DNA, chemistry not fully specified) | −0.8471 | −0.6833 | 1.116 | 1.1
24 | POLR1D_ + _28196016.23-P1_07 (guide GGGAAGCAAGGAGCGACCGA; listed as DNA, chemistry not fully specified) | −0.3019 | −0.243 | 0.3976 | 0.3911
25 | POLR1D_ + _28196016.23-P1_08 (guide GGGAAGCAGGGACCGACCGA; listed as DNA, chemistry not fully specified) | −0.8088 | −0.6317 | 1.065 | 1.017
26 | POLR2H_ + _184081251.23-P1P2_00 (guide GGGGCCACGAGAGCAGCAGA; listed as DNA, chemistry not fully specified) | −1.149 | −0.6391 | 1 | 1
27 | POLR2H_ + _184081251.23-P1P2_07 (guide GGGGCCACGAGTGCAGCAGA; listed as DNA, chemistry not fully specified) | −0.1894 | −0.1426 | 0.1648 | 0.223
28 | POLR2H_ + _184081251.23-P1P2_08 (guide GGGGCCACGCGAGCAGCAGA; listed as DNA, chemistry not fully specified) | −0.5208 | −0.334 | 0.4532 | 0.5225
29 | POLR2H_ + _184081251.23-P1P2_11 (guide GGGGCCACGAGAGCAGCGGA; listed as DNA, chemistry not fully specified) | −0.9966 | −0.5467 | 0.8672 | 0.8554
30 | POLR2H_ + _184081251.23-P1P2_12 (guide GGGGCCACGAGAGCAGGAGA; listed as DNA, chemistry not fully specified) | −0.3516 | −0.2298 | 0.306 | 0.3595
31 | RAN_ + _131356438.23-P1P2_00 (guide GGCGGTCGCTGCGCTTAGGG; listed as DNA, chemistry not fully specified) | −0.1974 | −0.1615 | 1 | 1
32 | RAN_ + _131356438.23-P1P2_02 (guide GGCGGCCGCTGCGCTTAGGG; listed as DNA, chemistry not fully specified) | −0.2316 | −0.2041 | 1.173 | 1.264
33 | RAN_ + _131356438.23-P1P2_03 (guide GGGGGTCGCTGCGCTTAGGG; listed as DNA, chemistry not fully specified) | −0.2162 | −0.197 | 1.095 | 1.22
